Assay results from patent publication US4052455A, “Styrylamidines” (Mead Johnson & Company, priority 1975, dated 1977).

Columns and labels:
[1] = tested on: phenylquinone writhing syndrome; assay: Phenylquinone writhing test (analgesic activity); format: in vivo; settings: mice
Method: In this test, groups of 10-20 mice are injected subcutaneously or orally with different doses of the test compound. At predetermined time intervals, the mice receive 2.5 mg./kg. phenylquinone intraperitoneally. The total number of writhing episodes is counted for each mouse for 10 min. and the average percent decrease in writhing recorded for each dose.
The novel styrylsulfonylamidines of Formula V in addition to being useful as precursors to the styrylamidine products of Formula I have analgesic utility as measured in the foregoing phenylquinone writhing test. A preferred class of styrylsulfonylamidines of Formula V having particularly significant analgesic activity are those wherein R1 and R2 are each hydrogen, nitro or halogen and A is phenyl or lower alkyl of from 1 to 8 carbon atoms inclusive. Analgesic activity at the time interval indicated following administration of compounds representative of this class are given in Table I below.

[2] = tested on: CNS; assay: CNS effects after oral or intraperitoneal administration to the mouse; format: in vivo
Method: 5,6-Dihydro-4-methyl-5-(4-nitrophenyl)-3-phenyl-4H-1,2,4-thiadiazine 1,1-dioxide was not effective in preventing the phenylquinone writhing syndrome in mice at an oral dose of 100 mg./kg. body weight or subcutaneous dose of 6 mg./kg. body weight.

[3] = as reported in U.S. Pat. No. 3,413,345; cited from earlier work
[4] = tested on: urine output; assay: Lipschitz diuretic test; format: in vivo; settings: oral dose 30 mg./kg. body weight
From the text: N-(2,6-dichlorostyryl)acetamidine is orally effective as a diuretic agent according to the W. L. Lipschitz, et al., J. Pharmacol. Expt.

[5] = tested on: mouse electroshock; assay: Mouse electroshock test of Swinyard (anticonvulsant); format: in vivo; settings: 250 mg./kg. body weight
From the text: Aside from antithrombogenic and analgesic effects, compounds of Formula I wherein R1 and R2 substituents are halogen (particularly chlorine), R3 is hydrogen or methyl and A is selected from the group consisting of lower alkyl of from 1 to 8 carbon atoms inclusive or cycloalkyl of from 3 to 6 carbon atoms inclusive, are useful as anticonvulsant, hypotensive and antihypertensive agents. […] For example, N-(2,6-dichlorostyryl)acetamidine in the mouse electroshock test of E. A. Swinyard, J. Amer. Pharm.

[6] = tested on: blood pressure; assay: Blood pressure and heart rate in anesthetized normotensive dog; format: in vivo
Method: (§1) For instance, at 1.0 mg./kg. body weight, this compound provides a 33% reduction in blood pressure while at 10.0 mg./kg. body weight, a 64% reduction in blood pressure is obtained. In the same test procedure, the prior art cinnamylamidine, N-(4-chlorocinnamyl)acetamidine, provided a 12% increase in blood pressure with a 6% decrease in heart rate at a dose of 1.0 mg./kg. body weight. At a dose of 10.0 mg./kg. body weight, the prior art cinnamylamidine provides an increase of 26% in blood pressure.

[7] = tested on: blood pressure; assay: Blood pressure in spontaneous hypertensive rat; format: in vivo; settings: 50 mg./kg.
Method: as §1

In the case of `CN1C(c2ccccc2)=NS(=O)(=O)CC1c1ccc([N+](=O)[O-])cc1` (centres unmarked) [5,6-dihydro-4-methyl-5-(4-nitrophenyl)-3-phenyl-4H-1,2,4-thiadiazine 1,1-dioxide], the “Prevention of the phenylquinone writhing syndrome” value ([1]; oral dose 100 mg./kg. body weight) is reported as “not effective”, the “Prevention of the phenylquinone writhing syndrome” value ([1]; subcutaneous dose 6 mg./kg. body weight) is reported as “not effective” and the “CNS effect” value [2] is reported as “non-specific CNS depression”.
In the case of `CC(=N)NCC=Cc1ccc(Cl)cc1` [N-(4-chlorocinnamyl)acetamidine, reference compound], the “Hypotensive effect” value [3] is given as “hypotensive effects which are quick in onset and of considerable duration”, the “Diuretic activity” value [4] is given as “essentially inactive” and the “Activity in mouse electroshock test” value [5] is given as “completely inactive”. For the same compound, the “Decrease in heart rate” value ([6]; 1.0 mg./kg.) was 6%, the “Increase in blood pressure” value ([6]; 1.0 mg./kg.) was 12% and the “Increase in blood pressure” value ([6]; 10.0 mg./kg.) was 26%. For the same compound, the “Antihypertensive effect” value [7] was “devoid of antihypertensive effects” and the “Change in blood pressure” value [7] was “slight increase in blood pressure”.
